Experimental data: ChEMBL document CHEMBL1909046, “DrugMatrix in vitro pharmacology data”

Tests used:
[1] = target: cGMP-specific 3',5'-cyclic phosphodiesterase (Homo sapiens, UniProt O76074); assay: DRUGMATRIX: Phosphodiesterase PDE5 enzyme inhibition (substrate: [3H]cGMP + cGMP); type: tissue-based, Platelet; conditions: platelet; Not Active = under 50% inhibition at 10 µM
[2] = target: Aldo-keto reductase family 1 member B1 (Rattus norvegicus, UniProt P07943); assay: biochemical; type: tissue-based, Lens of camera-type eye;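 further: inhibition of aldose reductase enzyme activity, measured with DL-glyceraldehyde as the substrate; in other assays of this panel Not Active means under 50% inhibition at 10 µM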
[3] = target: T1, Nitric oxide synthase, inducible (Mus musculus, UniProt P29477); parameters: species or system Escherichia coli;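 further: inhibition of iNOS enzyme activity measured with L-arginine as substrate; in other assays of this panel Not Active means under 50% inhibition at 10 µM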
T1 sequence (P29477 whole entry): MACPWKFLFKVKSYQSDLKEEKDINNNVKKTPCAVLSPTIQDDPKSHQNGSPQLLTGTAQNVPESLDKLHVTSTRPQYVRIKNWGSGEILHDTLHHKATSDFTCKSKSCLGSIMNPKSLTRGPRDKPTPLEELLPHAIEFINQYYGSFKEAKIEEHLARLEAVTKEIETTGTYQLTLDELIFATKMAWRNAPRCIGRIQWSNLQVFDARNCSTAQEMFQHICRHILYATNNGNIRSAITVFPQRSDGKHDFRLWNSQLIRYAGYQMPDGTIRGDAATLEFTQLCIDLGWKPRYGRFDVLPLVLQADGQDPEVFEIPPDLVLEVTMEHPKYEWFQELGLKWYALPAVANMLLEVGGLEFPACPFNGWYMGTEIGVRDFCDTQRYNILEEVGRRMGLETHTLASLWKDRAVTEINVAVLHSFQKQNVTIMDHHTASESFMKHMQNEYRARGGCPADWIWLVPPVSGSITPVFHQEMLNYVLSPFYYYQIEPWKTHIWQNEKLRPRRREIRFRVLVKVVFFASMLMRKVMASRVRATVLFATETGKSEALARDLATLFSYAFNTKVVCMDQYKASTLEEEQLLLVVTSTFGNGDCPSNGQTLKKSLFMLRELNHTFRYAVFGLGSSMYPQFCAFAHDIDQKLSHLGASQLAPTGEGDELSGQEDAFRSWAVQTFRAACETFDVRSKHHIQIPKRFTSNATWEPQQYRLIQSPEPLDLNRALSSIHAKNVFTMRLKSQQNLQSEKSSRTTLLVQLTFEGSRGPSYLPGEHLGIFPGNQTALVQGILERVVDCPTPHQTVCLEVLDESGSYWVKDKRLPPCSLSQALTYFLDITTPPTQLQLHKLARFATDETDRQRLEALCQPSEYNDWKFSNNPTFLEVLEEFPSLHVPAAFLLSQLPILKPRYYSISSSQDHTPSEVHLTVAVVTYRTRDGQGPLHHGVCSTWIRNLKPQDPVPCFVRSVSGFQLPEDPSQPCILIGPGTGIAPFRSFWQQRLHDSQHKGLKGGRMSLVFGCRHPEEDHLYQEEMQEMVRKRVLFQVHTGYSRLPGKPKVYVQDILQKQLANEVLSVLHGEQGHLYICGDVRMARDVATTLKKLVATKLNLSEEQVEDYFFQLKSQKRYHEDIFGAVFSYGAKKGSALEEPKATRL

[4] = target: Nitric oxide synthase 1 (Rattus norvegicus, UniProt P29476); type: tissue-based, Cerebellum; further: in other assays of this panel Not Active means under 50% inhibition at 10 µM
Sequence of Nitric oxide synthase 1 (P29476 whole entry): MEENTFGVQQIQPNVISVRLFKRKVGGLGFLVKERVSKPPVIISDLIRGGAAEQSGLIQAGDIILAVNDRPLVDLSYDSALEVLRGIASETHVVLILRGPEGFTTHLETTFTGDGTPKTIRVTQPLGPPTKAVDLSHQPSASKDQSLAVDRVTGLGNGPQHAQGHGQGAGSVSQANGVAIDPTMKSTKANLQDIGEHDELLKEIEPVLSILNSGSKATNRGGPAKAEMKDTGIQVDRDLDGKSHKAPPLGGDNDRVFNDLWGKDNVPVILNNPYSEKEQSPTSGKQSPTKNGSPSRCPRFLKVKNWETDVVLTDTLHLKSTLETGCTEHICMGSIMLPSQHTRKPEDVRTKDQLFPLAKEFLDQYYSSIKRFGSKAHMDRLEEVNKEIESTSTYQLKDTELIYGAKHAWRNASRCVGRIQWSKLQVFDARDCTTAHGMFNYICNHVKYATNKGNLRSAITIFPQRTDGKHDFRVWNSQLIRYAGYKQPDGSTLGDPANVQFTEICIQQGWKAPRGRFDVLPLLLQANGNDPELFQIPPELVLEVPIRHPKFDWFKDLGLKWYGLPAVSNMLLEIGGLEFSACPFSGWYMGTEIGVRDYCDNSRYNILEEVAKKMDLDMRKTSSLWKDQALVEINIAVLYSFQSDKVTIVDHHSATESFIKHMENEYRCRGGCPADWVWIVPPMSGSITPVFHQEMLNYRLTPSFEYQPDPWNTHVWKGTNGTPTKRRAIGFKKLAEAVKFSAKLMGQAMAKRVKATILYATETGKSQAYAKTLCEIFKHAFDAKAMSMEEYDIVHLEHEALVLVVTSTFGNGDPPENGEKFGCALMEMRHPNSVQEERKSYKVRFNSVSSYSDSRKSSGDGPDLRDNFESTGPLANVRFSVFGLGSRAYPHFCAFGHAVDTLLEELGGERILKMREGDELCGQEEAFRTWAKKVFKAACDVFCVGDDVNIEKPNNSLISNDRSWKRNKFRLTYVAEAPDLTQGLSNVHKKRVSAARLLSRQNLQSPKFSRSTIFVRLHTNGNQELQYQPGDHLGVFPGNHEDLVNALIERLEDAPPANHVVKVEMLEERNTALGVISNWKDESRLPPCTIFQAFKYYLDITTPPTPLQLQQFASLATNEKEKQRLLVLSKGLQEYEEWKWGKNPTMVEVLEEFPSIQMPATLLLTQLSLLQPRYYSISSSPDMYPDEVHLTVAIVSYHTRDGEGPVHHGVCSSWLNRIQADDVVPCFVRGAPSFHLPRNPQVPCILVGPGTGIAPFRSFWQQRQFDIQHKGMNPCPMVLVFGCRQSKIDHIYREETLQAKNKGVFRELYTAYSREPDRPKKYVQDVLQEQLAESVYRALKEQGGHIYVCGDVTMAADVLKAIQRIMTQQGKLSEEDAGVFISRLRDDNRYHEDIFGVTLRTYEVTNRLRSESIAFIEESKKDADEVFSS

[5] = DRUGMATRIX: Purinergic P2X radioligand binding (ligand: [3H] alpha, beta-Methylene-ATP); type: cell membranes, Oryctolagus cuniculus, New Zealand albino, Urinary bladder, Membrane; conditions: Not Active = under 50% inhibition at 10 µM
[6] = DRUGMATRIX: Imidazoline I2, Central radioligand binding (ligand: [3H] Idazoxan); type: cell membranes, Rattus norvegicus, Wistar, Cerebral cortex, Membrane; conditions: Not Active = under 50% inhibition at 10 µM
[7] = DRUGMATRIX: Nicotinic Acetylcholine radioligand binding (ligand: [125I] Epibatidine); type: cell membranes, Membrane; conditions: imr-32; Not Active = under 50% inhibition at 10 µM

Compound | IC50 [1] | IC50 [2] | IC50 [3] | IC50 [4] | IC50 [5] | Ki [5] | IC50 [6] | Ki [6] | IC50 [7] | Ki [7] | IC50 ([2]; read-out: IC50)
Cc1cc2c(s1)Nc1ccccc1N=C2N1CCN(C)CC1 [OLANZAPINE] | Not Active | Not Active | Not Active | Not Active | – | – | – | – | – | – | –
CC1(C)[C@H](C(=O)O)N2C(=O)C[C@H]2S1(=O)=O [SULBACTAM] | Not Active | Not Active | Not Active | Not Active | Not Active | Not Active | Not Active | Not Active | Not Active | Not Active | –
Oc1ccc(/C=C/c2cc(O)cc(O)c2)cc1 [RESVERATROL] | Not Active | Not Active | Not Active | Not Active | Not Active | Not Active | Not Active | Not Active | Not Active | Not Active | –
O=C1CC[C@@]2(O)[C@H]3Cc4ccc(O)c5c4[C@@]2(CCN3CC2CC2)[C@H]1O5 [NALTREXONE] | Not Active | Not Active | Not Active | Not Active | Not Active | Not Active | Not Active | Not Active | Not Active | Not Active | –
Cc1nnc(NS(=O)(=O)c2ccc(N)cc2)s1 [SULFAMETHIZOLE] | Not Active | Not Active | Not Active | Not Active | Not Active | Not Active | Not Active | Not Active | Not Active | Not Active | –
C=CCc1ccc2c(c1)OCO2 [SAFROLE] | Not Active | Not Active | Not Active | Not Active | Not Active | Not Active | Not Active | Not Active | Not Active | Not Active | –
Cc1cn([C@H]2C=C[C@@H](CO)O2)c(=O)[nH]c1=O [STAVUDINE] | Not Active | Not Active | Not Active | Not Active | Not Active | Not Active | Not Active | Not Active | Not Active | Not Active | –
CC1=C(/C=C/C(C)=C/C=C/C(C)=C/C(=O)O)C(C)(C)CCC1 [TRETINOIN] | Not Active | Not Active | Not Active | Not Active | Not Active | Not Active | Not Active | Not Active | Not Active | Not Active | –
Nc1nc(N)c2nc(-c3ccccc3)c(N)nc2n1 | Not Active | Not Active | Not Active | Not Active | Not Active | Not Active | Not Active | Not Active | Not Active | Not Active | –
CN1C(=O)OC(C)(C)C1=O [TRIMETHADIONE] | Not Active | Not Active | Not Active | Not Active | Not Active | Not Active | Not Active | Not Active | Not Active | Not Active | –
Cc1ccc(S(=O)(=O)NC(=O)NN2CCCCCC2)cc1 [TOLAZAMIDE] | Not Active | Not Active | Not Active | Not Active | Not Active | Not Active | Not Active | Not Active | Not Active | Not Active | –
O=C(O)c1cc(/N=N/c2ccc(S(=O)(=O)Nc3ccccn3)cc2)ccc1O [SULFASALAZINE] | Not Active | – | Not Active | Not Active | Not Active | Not Active | Not Active | Not Active | Not Active | Not Active | 17 µM
CCN(CC)C(=S)SSC(=S)N(CC)CC | Not Active | Not Active | Not Active | Not Active | Not Active | Not Active | Not Active | Not Active | Not Active | Not Active | –
CS(=O)(=O)c1ccc(C2=C(c3ccccc3)C(=O)OC2)cc1 [ROFECOXIB] | Not Active | Not Active | Not Active | Not Active | Not Active | Not Active | Not Active | Not Active | Not Active | Not Active | –
Cc1cnc(NC(=O)C2=C(O)c3ccccc3S(=O)(=O)N2C)s1 [MELOXICAM] | Not Active | Not Active | Not Active | Not Active | Not Active | Not Active | Not Active | Not Active | Not Active | Not Active | –
C1CCN2C[C@@H]3C[C@@H](CN4CCCC[C@@H]34)[C@H]2C1 [SPARTEINE] | Not Active | Not Active | Not Active | Not Active | Not Active | Not Active | Not Active | Not Active | Not Active | Not Active | –
CO[C@@H]1[C@@H](OC)[C@H](C)[C@@](O)(CC(=O)O)O[C@H]1[C@H](C)[C@H]1O[C@@]2(CC[C@@](C)([C@H]3CC[C@@](C)([C@@H]4O[C@@H]([C@H]5O[C@](C)(O)[C@H](C)C[C@@H]5C)C[C@@H]4O[C@@H]4C[C@H](OC)[C@@H](OC)[C@H](C)O4)O3)O2)C[C@H](O)[C@H]1C.N [MADURAMICIN] | Not Active | Not Active | Not Active | Not Active | Not Active | Not Active | Not Active | Not Active | Not Active | Not Active | –
CC[C@@]1(O)C(=O)OCc2c1cc1n(c2=O)Cc2cc3c(CN(C)C)c(O)ccc3nc2-1 [TOPOTECAN] | Not Active | Not Active | Not Active | Not Active | Not Active | Not Active | Not Active | Not Active | Not Active | Not Active | –
C#C[C@]1(O)CC[C@H]2[C@@H]3[C@H](C)CC4=C(CCC(=O)C4)[C@H]3CC[C@@]21C [TIBOLONE] | Not Active | Not Active | Not Active | Not Active | Not Active | Not Active | Not Active | Not Active | Not Active | Not Active | –
C[N+]1(C)[C@@H]2C[C@@H](OC(=O)[C@H](CO)c3ccccc3)C[C@H]1[C@@H]1O[C@@H]12.[Br-] [METHSCOPOLAMINE BROMIDE] | Not Active | Not Active | Not Active | Not Active | Not Active | Not Active | Not Active | Not Active | Not Active | Not Active | –
CC[C@H](C)[C@@H](CO[C@@H](Cc1ccccc1)C(=O)N[C@@H](CCS(C)(=O)=O)C(=O)OC(C)C)NC[C@@H](N)CS | Not Active | Not Active | Not Active | Not Active | Not Active | Not Active | Not Active | Not Active | Not Active | Not Active | –
CCN1CCCC1CNC(=O)c1cc(S(N)(=O)=O)ccc1OC (configuration not stated) [SULPIRIDE] | Not Active | Not Active | Not Active | Not Active | Not Active | Not Active | Not Active | Not Active | Not Active | Not Active | –
CNCCCC12CCC(c3ccccc31)c1ccccc12 [MAPROTILINE] | Not Active | Not Active | Not Active | Not Active | – | – | – | – | – | – | –
CN(C)CCC=C1c2ccccc2COc2ccccc21 [DOXEPIN] | Not Active | Not Active | Not Active | Not Active | – | – | – | – | – | – | –
